Experimental data from the NIST ThermoML archive (doi:10.1016/j.jct.2004.10.005).
± gives the expanded uncertainty stated by the source.

Experiment: molar heat capacity at saturation pressure
Conditions: Vacuum adiabatic calorimetry

BrC12CC3CC(CC(C3)C1)C2 [1-bromotricyclo[3.3.1.1(3,7)]decane]
molar heat capacity (5.98 K, Crystal 4): 1.102 ± 0.028 J/K/mol | molar heat capacity (6.34 K, Crystal 4): 1.301 ± 0.032 J/K/mol | molar heat capacity (6.73 K, Crystal 4): 1.56 ± 0.037 J/K/mol | molar heat capacity (7.05 K, Crystal 4): 1.776 ± 0.041 J/K/mol | molar heat capacity (7.4 K, Crystal 4): 2.048 ± 0.047 J/K/mol | molar heat capacity (7.78 K, Crystal 4): 2.391 ± 0.053 J/K/mol | molar heat capacity (8.34 K, Crystal 4): 2.94 ± 0.062 J/K/mol | molar heat capacity (8.96 K, Crystal 4): 3.558 ± 0.073 J/K/mol | molar heat capacity (9.37 K, Crystal 4): 4.013 ± 0.081 J/K/mol | molar heat capacity (9.8 K, Crystal 4): 4.489 ± 0.09 J/K/mol | molar heat capacity (10.27 K, Crystal 4): 5.11 ± 0.1 J/K/mol | molar heat capacity (10.71 K, Crystal 4): 5.643 ± 0.11 J/K/mol | molar heat capacity (11.11 K, Crystal 4): 6.154 ± 0.12 J/K/mol | molar heat capacity (11.51 K, Crystal 4): 6.677 ± 0.12 J/K/mol | molar heat capacity (11.92 K, Crystal 4): 7.254 ± 0.13 J/K/mol | molar heat capacity (12.35 K, Crystal 4): 7.849 ± 0.14 J/K/mol | molar heat capacity (12.82 K, Crystal 4): 8.366 ± 0.15 J/K/mol | molar heat capacity (13.25 K, Crystal 4): 9.058 ± 0.16 J/K/mol | molar heat capacity (14.09 K, Crystal 4): 10.21 ± 0.17 J/K/mol | molar heat capacity (14.56 K, Crystal 4): 10.84 ± 0.18 J/K/mol | molar heat capacity (15 K, Crystal 4): 11.48 ± 0.19 J/K/mol | molar heat capacity (15.42 K, Crystal 4): 12.01 ± 0.19 J/K/mol | molar heat capacity (15.87 K, Crystal 4): 12.79 ± 0.2 J/K/mol | molar heat capacity (16.34 K, Crystal 4): 13.48 ± 0.21 J/K/mol | molar heat capacity (16.79 K, Crystal 4): 14.11 ± 0.22 J/K/mol | molar heat capacity (17.32 K, Crystal 4): 14.74 ± 0.22 J/K/mol | molar heat capacity (17.91 K, Crystal 4): 15.58 ± 0.23 J/K/mol | molar heat capacity (18.48 K, Crystal 4): 16.3 ± 0.24 J/K/mol | molar heat capacity (19.01 K, Crystal 4): 17.14 ± 0.24 J/K/mol | molar heat capacity (19.61 K, Crystal 4): 17.85 ± 0.25 J/K/mol | molar heat capacity (20.29 K, Crystal 4): 18.72 ± 0.25 J/K/mol | molar heat capacity (20.93 K, Crystal 4): 19.58 ± 0.26 J/K/mol | molar heat capacity (21.63 K, Crystal 4): 20.43 ± 0.26 J/K/mol | molar heat capacity (22.39 K, Crystal 4): 21.39 ± 0.27 J/K/mol | molar heat capacity (23.1 K, Crystal 4): 22.23 ± 0.27 J/K/mol | molar heat capacity (23.9 K, Crystal 4): 23.12 ± 0.27 J/K/mol | molar heat capacity (24.76 K, Crystal 4): 24.04 ± 0.27 J/K/mol | molar heat capacity (25.69 K, Crystal 4): 25.07 ± 0.27 J/K/mol | molar heat capacity (26.66 K, Crystal 4): 26.14 ± 0.27 J/K/mol | molar heat capacity (27.58 K, Crystal 4): 27.16 ± 0.27 J/K/mol | molar heat capacity (28.56 K, Crystal 4): 28.01 ± 0.27 J/K/mol | molar heat capacity (29.52 K, Crystal 4): 28.99 ± 0.29 J/K/mol | molar heat capacity (29.57 K, Crystal 4): 29.29 ± 0.3 J/K/mol | molar heat capacity (30.13 K, Crystal 4): 29.69 ± 0.26 J/K/mol | molar heat capacity (30.42 K, Crystal 4): 30.4 ± 0.27 J/K/mol | molar heat capacity (30.62 K, Crystal 4): 30.95 ± 0.28 J/K/mol | molar heat capacity (30.71 K, Crystal 4): 31.25 ± 0.3 J/K/mol | molar heat capacity (31.02 K, Crystal 4): 33.37 ± 0.31 J/K/mol | molar heat capacity (31.27 K, Crystal 3): 31.25 ± 0.26 J/K/mol | molar heat capacity (31.56 K, Crystal 3): 31.24 ± 0.26 J/K/mol | molar heat capacity (31.81 K, Crystal 3): 31.34 ± 0.25 J/K/mol | molar heat capacity (32.25 K, Crystal 3): 31.61 ± 0.25 J/K/mol | molar heat capacity (33.06 K, Crystal 3): 32.35 ± 0.24 J/K/mol | molar heat capacity (33.28 K, Crystal 3): 32.47 ± 0.24 J/K/mol | molar heat capacity (34.66 K, Crystal 3): 33.75 ± 0.23 J/K/mol | molar heat capacity (36.35 K, Crystal 3): 35.07 ± 0.22 J/K/mol | molar heat capacity (38.12 K, Crystal 3): 36.42 ± 0.2 J/K/mol | molar heat capacity (39.98 K, Crystal 3): 37.78 ± 0.17 J/K/mol | molar heat capacity (41.9 K, Crystal 3): 39.06 ± 0.18 J/K/mol | molar heat capacity (43.96 K, Crystal 3): 40.39 ± 0.18 J/K/mol | molar heat capacity (46.12 K, Crystal 3): 41.85 ± 0.19 J/K/mol | molar heat capacity (48.32 K, Crystal 3): 43.17 ± 0.19 J/K/mol | molar heat capacity (50.74 K, Crystal 3): 44.52 ± 0.2 J/K/mol | molar heat capacity (53.31 K, Crystal 3): 45.98 ± 0.2 J/K/mol | molar heat capacity (55.82 K, Crystal 3): 47.36 ± 0.21 J/K/mol | molar heat capacity (58.21 K, Crystal 3): 48.67 ± 0.21 J/K/mol | molar heat capacity (60.62 K, Crystal 3): 50.13 ± 0.22 J/K/mol | molar heat capacity (63.03 K, Crystal 3): 51.45 ± 0.23 J/K/mol | molar heat capacity (65.43 K, Crystal 3): 52.6 ± 0.23 J/K/mol | molar heat capacity (67.86 K, Crystal 3): 54.08 ± 0.24 J/K/mol | molar heat capacity (70.3 K, Crystal 3): 55.24 ± 0.24 J/K/mol | molar heat capacity (72.8 K, Crystal 3): 56.68 ± 0.25 J/K/mol | molar heat capacity (75.3 K, Crystal 3): 57.96 ± 0.26 J/K/mol | molar heat capacity (77.74 K, Crystal 3): 59.21 ± 0.27 J/K/mol | molar heat capacity (80.19 K, Crystal 3): 60.74 ± 0.27 J/K/mol | molar heat capacity (82.69 K, Crystal 3): 61.79 ± 0.28 J/K/mol | molar heat capacity (85.17 K, Crystal 3): 63.27 ± 0.28 J/K/mol | molar heat capacity (87.66 K, Crystal 3): 64.58 ± 0.29 J/K/mol | molar heat capacity (90.17 K, Crystal 3): 65.86 ± 0.32 J/K/mol | molar heat capacity (92.68 K, Crystal 3): 67.39 ± 0.33 J/K/mol | molar heat capacity (95.2 K, Crystal 3): 68.53 ± 0.33 J/K/mol | molar heat capacity (97.74 K, Crystal 3): 70.12 ± 0.34 J/K/mol | molar heat capacity (100.3 K, Crystal 3): 71.52 ± 0.35 J/K/mol | molar heat capacity (100.96 K, Crystal 3): 71.76 ± 0.35 J/K/mol | molar heat capacity (102.83 K, Crystal 3): 72.73 ± 0.35 J/K/mol | molar heat capacity (104.15 K, Crystal 3): 73.63 ± 0.35 J/K/mol | molar heat capacity (105.3 K, Crystal 3): 74.09 ± 0.36 J/K/mol | molar heat capacity (107.32 K, Crystal 3): 75.22 ± 0.36 J/K/mol | molar heat capacity (110.3 K, Crystal 3): 76.73 ± 0.37 J/K/mol | molar heat capacity (113.21 K, Crystal 3): 78.44 ± 0.37 J/K/mol | molar heat capacity (116.14 K, Crystal 3): 79.82 ± 0.38 J/K/mol | molar heat capacity (119.1 K, Crystal 3): 81.75 ± 0.39 J/K/mol | molar heat capacity (122.01 K, Crystal 3): 83.28 ± 0.39 J/K/mol | molar heat capacity (124.86 K, Crystal 3): 84.61 ± 0.4 J/K/mol
